US8440794B2, “Peptide sequences, their branched form and use thereof for antimicrobial applications” (Universita' Degli Studi di Siena, priority 2008, dated 2013)
≈ marks a conversion by molar mass, not a printed value. Where a SMILES comes first, the peptide text is derived from it. Bridges are numbered along the chain shown (N, C = ends). Roman numbers before positions name the chains, in order. [ ]: non-standard residue; d: D form. βAla = NCCC(=O)O

Legend:
E. coli W03BG0025 = type: cell-based, Escherichia coli; settings: W03BG0025, 24 h
Method: (§1) M33, […], M35 and M36 MICs were determined against strains of several bacterial species, including Gram-negative pathogens and also Staphylococcus aureus (Table 1). MICs in the micromolar range were observed against several Gram-negatives including Pseudomonas aeruginosa, Acinetobacter baumannii and most Enterobacteriaceae, with the exception of Proteus mirabilis, Serratia marcescens and Burkholderia cepacia. Activity of peptides was retained against MDR strains with various resistance mechanisms (such as extended-spectrum beta-lactamases and carbapenemases), including MDR P. aeruginosa strains from CF patients. Antimicrobial profile of M33, […] and potency were overall similar to those of polymyxin B, although M33, M34, M35 and M36 also appeared to have some activity against S. aureus (Table 1).

P. aeruginosa ATCC 27853 = test: Bacterial load of P. aeruginosa in a mouse sepsis model; type: in vivo; settings: P. aeruginosa 1 × 10^7 CFU/mouse ip, M33 25 mg/Kg
Method: After 40 hours, all sampled body sites were apparently clear of bacteria (Table 2).

S. aureus 3851 = type: cell-based, Staphylococcus aureus; settings: 3851, 24 h
Method: as §1

LPS = test: Limulus amebocyte lysate test (E-toxate), LPS neutralization; settings: not shown
K pneumoniae FIPP-1 = type: cell-based, Klebsiella pneumoniae; settings: FIPP-1, 24 h
Method: as §1

K pneumoniae C8-27 = type: cell-based, Klebsiella pneumoniae; settings: C8-27, 24 h
Method: as §1

K pneumoniae 7086042 = type: cell-based, Klebsiella pneumoniae; settings: 7086042, 24 h
Method: as §1

[1] = system: Enterobacer aerogenes W03BG0067; type: cell-based; settings: 24 h
Method: as §1

[2] = system: Klebsiella pneumoniae ATCC 13833; type: cell-based; settings: ATCC 13833, 24 h
Method: as §1

[3] = system: Pseudomonas aeruginosa ATCC 27853; type: cell-based; settings: ATCC 27853, 24 h
Method: as §1

[4] = system: Proteus mirabilis W03VA1017; type: cell-based; settings: W03VA1017, 24 h
Method: as §1

[5] = system: Enterobacter cloacae W03AN0041; type: cell-based; settings: W03AN0041, 24 h
Method: as §1

[6] = system: Staphylococcus aureus ATCC 29213; type: cell-based; settings: ATCC 29213, 24 h
Method: as §1

[7] = system: Escherichia coli ATCC 25922; type: cell-based; settings: ATCC 25922, 24 h
Method: as §1

[8] = system: Serratia marcescens W03BG0003; type: cell-based; settings: W03BG0003, 24 h
Method: as §1

[9] = system: Burkholderia cepacia ORB-99; type: cell-based; settings: 24 h
Method: as §1

[10] = system: Acinetobacter baumannii RUH 134; type: cell-based; settings: RUH 134, 24 h
Method: as §1

A. baumannii RUH 875 = type: cell-based, Acinetobacter baumannii; settings: RUH 875, 24 h
Method: as §1

A. baumannii MR157 = type: cell-based, Acinetobacter baumannii; settings: MR157, 24 h
Method: as §1

E. coli TG1 = test: In vivo antibacterial activity, mice infected ip with lethal amount of E. coli TG1; design: species or system Balb-c mice; settings: E. coli TG1 1.5×10^9 CFU ip; single dose 10 mg/Kg ip 30 minutes later
Method: FIG. 4. In vivo antibacterial activity of tetra-branched M33 peptide. A, Balb-c mice (20 g) were intra-peritoneally injected with a lethal amount of E. coli TG1 cells (1.5×10^9 CFU). Continuous line (Ctr) indicates mice only injected ip with bacteria and no M33. Broken line indicates mice injected ip with bacteria and a single injection of M33 peptide 10 mg/Kg 30 minutes later. B, Balb-c mice (20 g) were intra-peritoneally injected with a lethal amount of P. aeruginosa cells (ATCC 27853 1×10^7 CFU). Continuous line (Ctr) indicates mice which only received bacteria; other groups received bacteria and a single dose of M33 30 minutes later (see figure for doses of M33). C, Balb-c mice (20 g) were intra-peritoneally injected with a lethal amount of P. aeruginosa cells (multi drug resistant VR 147 clinical isolate, 1.5×10^7 CFU). Continuous line (Ctr) indicates mice which only received bacteria; broken line indicates mice which received bacteria and a single dose of M33 25 mg/Kg. D, Balb-c mice (20 g) were intra-peritoneally injected with a lethal amount of P. aeruginosa cells (ATCC 27853 1×10^7 CFU). […]
Tetra-branched M33 peptide was analysed for its antibacterial activity in mice infected with lethal amounts of bacteria. […]

[11] = system: P. aeruginosa SC-BGr12-02; type: cell-based, Pseudomonas aeruginosa; settings: SC-BGr12-02, 24 h
P. aeruginosa AV65 = type: cell-based, Pseudomonas aeruginosa; settings: AV65, 24 h
[12] = system: P. aeruginosa SC-MDm03-02; type: cell-based, Pseudomonas aeruginosa; settings: SC-MDm03-02, 24 h
P. aeruginosa PAO-1 = type: cell-based, Pseudomonas aeruginosa; settings: PAO-1, 24 h
[13] = sacrificed 18 h after infection
[14] = sacrificed 40 h after infection

For `CC[C@H](C)[C@H](NC(=O)[C@H](CCCCN)NC(=O)[C@@H](N)CCCCN)C(=O)N[C@@H](CCCNC(=N)N)C(=O)N[C@H](C(=O)N[C@@H](CCCNC(=N)N)C(=O)N[C@@H](CC(C)C)C(=O)N[C@@H](CO)C(=O)N[C@@H](C)C(=O)NCCCC[C@H](NC(=O)[C@H](C)NC(=O)[C@H](CO)NC(=O)[C@H](CC(C)C)NC(=O)[C@H](CCCNC(=N)N)NC(=O)[C@@H](NC(=O)[C@H](CCCNC(=N)N)NC(=O)[C@@H](NC(=O)[C@H](CCCCN)NC(=O)[C@@H](N)CCCCN)[C@@H](C)CC)C(C)C)C(=O)NCCCC[C@H](NC(=O)[C@H](CCCCNC(=O)[C@H](C)NC(=O)[C@H](CO)NC(=O)[C@H](CC(C)C)NC(=O)[C@H](CCCNC(=N)N)NC(=O)[C@@H](NC(=O)[C@H](CCCNC(=N)N)NC(=O)[C@@H](NC(=O)[C@H](CCCCN)NC(=O)[C@@H](N)CCCCN)[C@@H](C)CC)C(C)C)NC(=O)[C@H](C)NC(=O)[C@H](CO)NC(=O)[C@H](CC(C)C)NC(=O)[C@H](CCCNC(=N)N)NC(=O)[C@@H](NC(=O)[C@H](CCCNC(=N)N)NC(=O)[C@@H](NC(=O)[C@H](CCCCN)NC(=O)[C@@H](N)CCCCN)[C@@H](C)CC)C(C)C)C(=O)NCCC(=O)O)C(C)C` [M33, KKIRVRLSA] (I: H-KKIRVRLSAKK[βAla]-OH / II: H-KKIRVRLSAK / III: H-KKIRVRLSA / IV: H-KKIRVRLSA; amide I:10-IV:C, I:11-II:C, II:10-III:C; N-terminus assumed), the MIC (E. coli W03BG0025) was 0.7 µM (≈ 3.28 µg/mL), the “Bacterial count (mean ± SD) in Blood” value (P. aeruginosa ATCC 27853; [13]) was <1 × 10^2 CFU/ml and the “Bacterial count (mean ± SD) in Liver” value (P. aeruginosa ATCC 27853; [13]) was 3 × 10^5 ± 6.7 × 10^5 CFU/organ. The “Bacterial count (mean ± SD) in Spleen” value (P. aeruginosa ATCC 27853; [13]) was 2.4 × 10^4 ± 5.3 × 10^4 CFU/organ, the “Bacterial count (mean ± SD) in Blood” value (P. aeruginosa ATCC 27853; [14]) was <1 × 10^2 CFU/ml and the “Bacterial count (mean ± SD) in Liver” value (P. aeruginosa ATCC 27853; [14]) was <1 × 10^2 CFU/organ. For the same compound, the “Bacterial count (mean ± SD) in Peritoneum” value (P. aeruginosa ATCC 27853; [14]) was <1 × 10^2 CFU/ml, the “Bacterial count (mean ± SD) in Spleen” value (P. aeruginosa ATCC 27853; [14]) was <1 × 10^2 CFU/organ and the MIC (S. aureus 3851) was 6 µM (≈ 28.1 µg/mL). The “Neutralization of sample gelification due to LPS” value (LPS) was “ability to neutralize sample gelification due to LPS”, the MIC (K pneumoniae FIPP-1) was 3 µM (≈ 14 µg/mL) and the MIC (K pneumoniae C8-27) was 1.5 µM (≈ 7.02 µg/mL). The MIC (K pneumoniae 7086042) was 3 µM (≈ 14 µg/mL), the MIC [1] was 1.5 µM (≈ 7.02 µg/mL) and the MIC [2] was 1.5 µM (≈ 7.02 µg/mL). The MIC [3] was 1.5 µM (≈ 7.02 µg/mL), the MIC [4] was over 24 µM and the MIC [5] was 1.5 µM (≈ 7.02 µg/mL). For the same compound, the MIC [6] was 6 µM (≈ 28.1 µg/mL), the MIC [7] was 1.5 µM (≈ 7.02 µg/mL) and the MIC [8] was over 24 µM. It also gave an MIC [9] of over 24 µM, an MIC [10] of 1.5 µM (≈ 7.02 µg/mL) and an MIC (A. baumannii RUH 875) of 3 µM (≈ 14 µg/mL). For the same compound, the MIC (A. baumannii MR157) was 3 µM (≈ 14 µg/mL), the “Animals protected from signs of sepsis and death (seven-day survival)” value (E. coli TG1) was 100% and the MIC [11] was 1.5 µM (≈ 7.02 µg/mL). It also gave an MIC (P. aeruginosa AV65) of 1.5 µM (≈ 7.02 µg/mL), an MIC [12] of 3 µM (≈ 14 µg/mL) and an MIC (P. aeruginosa PAO-1) of 1.5 µM (≈ 7.02 µg/mL).
